Data published in ChEMBL document CHEMBL1201862, “PubChem BioAssay data set” (2004).
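Growth conditions: 96-well plates. Treatment: test compound, 48 hours, 5 concentrations. Analysis: linear interpolation between bracketing concentrations; unreached endpoints set to highest concentration. Here, GI50 denotes the concentration required for 50% inhibition of growth.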 Active and inactive are the calls of the source. Cut-off read from the data, not from the text of the source: active = GI50 up to about 1.1 µM and inactive = higher. Square brackets hold non-standard residues; d marks the D form. Peptide text beside a SMILES is read from it. Phe(4-Cl) = N[CH](Cc1ccc(Cl)cc1)C(=O)O; 2Nal = N[CH](Cc1ccc2ccccc2c1)C(=O)O; 3Pal = N[CH](Cc1cccnc1)C(=O)O

Assays:
Experiment in all cases: DTP human tumour cell line panel, 48 h
[1] = system: OVCAR-4
[2] = system: HCT-15
[3] = system: SK-OV-3
[4] = system: CCRF-CEM
[5] = system: SW-620
[6] = system: Malme-3M
[7] = system: DU-145
[8] = system: SK-MEL-28
[9] = system: PC-3
[10] = system: OVCAR-3
[11] = system: RPMI-8226
[12] = system: BT-549
[13] = system: RXF 393
[14] = system: NCI-H460
[15] = system: UACC-257
[16] = system: NCI-H522
[17] = system: HL-60
[18] = system: NCI-H23
[19] = system: SNB-75

Row | Structure (SMILES) | GI50 [1] | GI50 [2] | GI50 [3] | GI50 [4] | GI50 [5] | GI50 [6] | GI50 [7] | GI50 [8] | GI50 [9] | GI50 [10] | GI50 [11] | GI50 [12] | GI50 [13] | GI50 [14] | GI50 [15] | GI50 [16] | GI50 [17] | GI50 [18] | GI50 [19]
1 | S=C1c2ccccc2N=C(NC2CCCC2)C2CSCN12 (configuration not stated) | > 100 µM (inactive) | > 100 µM | > 100 µM (inactive) | 32 µM (inactive) | > 100 µM (inactive) | > 100 µM (inactive) | > 100 µM (inactive) | 89.7 µM (inactive) | 40.6 µM (inactive) | 97.1 µM (inactive) | 75.2 µM (inactive) | > 100 µM (inactive) | 91.6 µM (inactive) | 61.1 µM (inactive) | 51.5 µM (inactive) | 37.5 µM (inactive) | – | – | –
2 | CCOc1cc(C2CC(c3ccc(NS(=O)(=O)c4cc([N+](=O)[O-])ccc4C)cc3)=NN2c2ccc([N+](=O)[O-])cc2[N+](=O)[O-])ccc1O (configuration not stated) | 3.3 µM (inactive) | 19.3 µM | 3.43 µM (inactive) | 43.7 µM (inactive) | 21.8 µM (inactive) | 8.57 µM (inactive) | 12.8 µM (inactive) | 8 µM (inactive) | 20 µM (inactive) | 11.4 µM (inactive) | 11.3 µM (inactive) | 18 µM (inactive) | 7.11 µM (inactive) | – | 19.1 µM (inactive) | 10.4 µM (inactive) | 40.9 µM (inactive) | 16.7 µM (inactive) | 5.82 µM (inactive)
3 | O=S1(=O)C(c2ccccc2)C(N2CCCCC2)C1C1CC2c3ccccc3C1c1ccccc12 (configuration not stated) | 7.98 µM (inactive) | > 48.5 µM | > 100 µM (inactive) | 2.45 µM (inactive) | > 28.4 µM (inactive) | > 100 µM (inactive) | > 100 µM (inactive) | – | > 30 µM (inactive) | 17.6 µM (inactive) | 4.5 µM (inactive) | > 100 µM (inactive) | > 100 µM (inactive) | 17.6 µM (inactive) | > 92.7 µM (inactive) | 9.95 µM (inactive) | 2.86 µM (inactive) | > 100 µM (inactive) | > 100 µM (inactive)
4 | CN(C)CCSCCO | > 100 µM (inactive) | > 100 µM | > 100 µM (inactive) | – | > 100 µM (inactive) | > 100 µM (inactive) | > 100 µM (inactive) | > 100 µM (inactive) | > 100 µM (inactive) | > 100 µM (inactive) | > 100 µM (inactive) | > 100 µM (inactive) | > 100 µM (inactive) | > 100 µM (inactive) | > 100 µM (inactive) | > 100 µM (inactive) | 97.1 µM (inactive) | > 100 µM (inactive) | > 100 µM (inactive)
5 | CC(=O)Oc1cc(C(F)(F)F)ccc1C(=O)OC1(C)OC(=O)c2ccc(C(F)(F)F)cc2O1 (configuration not stated) | > 100 µM (inactive) | > 100 µM | > 100 µM (inactive) | > 100 µM (inactive) | > 100 µM (inactive) | > 100 µM (inactive) | > 100 µM (inactive) | > 100 µM (inactive) | > 100 µM (inactive) | > 100 µM (inactive) | – | > 100 µM (inactive) | > 100 µM (inactive) | > 100 µM (inactive) | > 100 µM (inactive) | > 100 µM (inactive) | > 100 µM (inactive) | > 100 µM (inactive) | 9.86 µM (inactive)
6 | COC(=O)C(CC12CC3CC(CC(C3)C1)C2)NC(=O)C(N)CC(=O)O (configuration not stated) | > 100 µM (inactive) | > 100 µM | > 100 µM (inactive) | > 100 µM (inactive) | > 100 µM (inactive) | – | > 100 µM (inactive) | > 100 µM (inactive) | > 100 µM (inactive) | – | > 100 µM (inactive) | > 100 µM (inactive) | > 100 µM (inactive) | > 100 µM (inactive) | > 100 µM (inactive) | > 100 µM (inactive) | – | > 100 µM (inactive) | > 100 µM (inactive)
7 | CC(=O)C1=C(C)N(c2ccc(C)cc2)C2(O)C=CC(O)=C3C(=O)c4ccccc4C(=O)C312 (configuration not stated) | 12.6 µM (inactive) | 4.49 µM | > 100 µM (inactive) | – | 4.81 µM (inactive) | 1.91 µM (inactive) | 15.4 µM (inactive) | 13.1 µM (inactive) | 16.4 µM (inactive) | 3.91 µM (inactive) | 3.27 µM (inactive) | 11 µM (inactive) | 9.04 µM (inactive) | 7.23 µM (inactive) | 10.6 µM (inactive) | 13.7 µM (inactive) | 7.76 µM (inactive) | 21.1 µM (inactive) | 19.4 µM (inactive)
8 | COc1cc(Cn2c3c(c4c(C(=O)NCCN(C)C)c(O)ccc42)C(=O)c2ccccc2C3=O)cc(OC)c1 | 1.71 µM (inactive) | 1.88 µM | 1.94 µM (inactive) | 0.601 µM (active) | – | 1.54 µM (inactive) | 1.67 µM (inactive) | 1.9 µM (inactive) | 1.7 µM (inactive) | 1.73 µM (inactive) | 1.87 µM (inactive) | 2.23 µM (inactive) | 1.68 µM (inactive) | 1.79 µM (inactive) | 1.97 µM (inactive) | 1.71 µM (inactive) | 2.04 µM (inactive) | 2.09 µM (inactive) | 1.91 µM (inactive)
9 | CC1OC(NCCNCCNC2OC(C)C(O)C(O)C2O)C(O)C(O)C1O (configuration not stated) | > 100 µM (inactive) | > 100 µM | – | – | > 100 µM (inactive) | > 100 µM (inactive) | > 100 µM (inactive) | > 100 µM (inactive) | > 100 µM (inactive) | > 100 µM (inactive) | > 100 µM (inactive) | > 100 µM (inactive) | > 100 µM (inactive) | > 100 µM (inactive) | > 100 µM (inactive) | > 100 µM (inactive) | > 100 µM (inactive) | > 100 µM (inactive) | > 100 µM (inactive)
10 | CC1(C)Cc2c(cnn2-c2ccc(C(F)(F)F)cc2)-c2[nH]c(-c3ccc(O)cc3)nc21 | 12.2 µM (inactive) | 11.1 µM | 21.4 µM (inactive) | 2.18 µM (inactive) | 14.5 µM (inactive) | 14.6 µM (inactive) | 17.5 µM (inactive) | 13.7 µM (inactive) | 16 µM (inactive) | 13.9 µM (inactive) | – | 12.8 µM (inactive) | 3.46 µM (inactive) | 14.4 µM (inactive) | 16.4 µM (inactive) | 8.99 µM (inactive) | 4.72 µM (inactive) | 18.2 µM (inactive) | 8.81 µM (inactive)
11 | CCCCCC(/C=C/[C@@H]1[C@@H](C(O)CCCCCC(=O)OC)C(=O)C[C@H]1O[Si](C)(C)C(C)(C)C)OCOCCOC (some centres not stated) | 18.5 µM (inactive) | 7.98 µM | 18.8 µM (inactive) | 2.62 µM (inactive) | 5.12 µM (inactive) | 16.8 µM (inactive) | 18 µM (inactive) | 15.3 µM (inactive) | 13.8 µM (inactive) | 14.9 µM (inactive) | 2.71 µM (inactive) | 9.06 µM (inactive) | 18.6 µM (inactive) | 29.7 µM (inactive) | 7.85 µM (inactive) | 3.92 µM (inactive) | – | 15 µM (inactive) | 10.4 µM (inactive)
12 | CC(=O)NC(Cc1ccc2ccccc2c1)C(=O)NC(Cc1ccc(Cl)cc1)C(=O)NC(Cc1cccnc1)C(=O)NC(CO)C(=O)NC(Cc1ccc(O)cc1)C(=O)NC(CCCN=C(N)N)C(=O)NC(CC(C)C)C(=O)NC(CCCN=C(N)N)C(=O)N1CCCC1C(=O)NC(C)C(N)=O (configuration not stated) (Ac-[2Nal][Phe(4-Cl)][3Pal]SYRLRPA-NH2; configuration not given here) | > 100 µM (inactive) | > 100 µM | – | > 100 µM (inactive) | > 100 µM (inactive) | 28.8 µM (inactive) | > 100 µM (inactive) | – | > 100 µM (inactive) | 49.9 µM (inactive) | > 100 µM (inactive) | > 100 µM (inactive) | > 100 µM (inactive) | 95.5 µM (inactive) | > 100 µM (inactive) | > 100 µM (inactive) | > 100 µM (inactive) | > 100 µM (inactive) | 88.9 µM (inactive)
13 | O=C(O)C1C2C=CC(O2)C1C(=O)Nc1ccccc1 (configuration not stated) | > 100 µM (inactive) | > 100 µM | > 100 µM (inactive) | > 100 µM (inactive) | > 100 µM (inactive) | > 100 µM (inactive) | > 100 µM (inactive) | > 100 µM (inactive) | > 100 µM (inactive) | > 100 µM (inactive) | > 100 µM (inactive) | > 100 µM (inactive) | > 100 µM (inactive) | – | > 100 µM (inactive) | > 100 µM (inactive) | – | > 100 µM (inactive) | > 100 µM (inactive)
14 | O=C(Nc1nc2ccc([N+](=O)[O-])cc2[n+]([O-])n1)C(F)(F)F | 26.3 µM (inactive) | 16.6 µM | – | 26.5 µM (inactive) | 37.6 µM (inactive) | 8.02 µM (inactive) | 37.9 µM (inactive) | 47.2 µM (inactive) | 28.2 µM (inactive) | > 10 µM (inactive) | 15 µM (inactive) | 94.2 µM (inactive) | 54.8 µM (inactive) | 14.3 µM (inactive) | 16.9 µM (inactive) | 21 µM (inactive) | 12.9 µM (inactive) | 26.2 µM (inactive) | 46.2 µM (inactive)
15 | O=C1CCN(CCC(F)(F)C(F)(F)C(F)(F)C(F)(F)C(F)(F)C(F)(F)F)C(=S)N1CCC(F)(F)C(F)(F)C(F)(F)C(F)(F)C(F)(F)C(F)(F)F | > 100 µM (inactive) | – | > 100 µM (inactive) | > 100 µM (inactive) | > 100 µM (inactive) | > 100 µM (inactive) | > 100 µM (inactive) | > 100 µM (inactive) | > 100 µM (inactive) | > 100 µM (inactive) | – | > 100 µM (inactive) | > 100 µM (inactive) | > 100 µM (inactive) | > 100 µM (inactive) | > 100 µM (inactive) | > 100 µM (inactive) | > 100 µM (inactive) | > 100 µM (inactive)
